Assay [1] relates to human colorectal cancer-derived cell line NCI-H716. In words: GLP-1 secretion, GLP-1 concentration in supernatant by ELISA. The conditions noted are these: for GLP-1 concentration in the supernatant compared to the DMSO treatment (control) group: 60 minutes, result in words (FIGS. 1-11); for fold induction at 100 µM / fold induction at 300 µM: Homo sapiens, NCI-H716, 1 h, GLP-1 concentration in supernatant against control group (0.1% DMSO) as 1, 60 minutes. Type of assay: cell-based. The procedure:
Subcultured human colorectal cancer-derived cell line NCI-H716 (ATCC) was plated on a poly-D-lysine coated 96-well plate at 1×10^5 cells per well. After culture at 37° C., 5% CO2 for 48 hours, the medium was substituted with a buffer (146 mM NaCl, 5 mM KCl, 1 mM MgSO4, 5.5 mM Glucose, 20 mM HEPES, 1.5 mM CaCl2, 0.2% BSA, pH 7.4), and dihydrocapsiate (DCT), dihydrocapsiate glycoside and structural analogs thereof (compounds 4, 12, 47, 27, 20, 18, 16, 30, 32, 32-3, 34, 35, 36, 24-2, 33, 14, 22, 23 and 24), each prepared to a given concentration with dimethyl sulfoxide (DMSO), were added. After treatment at 37° C., 5% CO2 for 60 minutes, the supernatant was recovered, and the concentration of GLP-1 in the supernatant was measured by the ELISA method. The strength of the activity of each compound is expressed against GLP-1 concentration of the control group (0.1% DMSO treatment group) as 1, and the compound showing higher GLP-1 concentration than the control group was evaluated as active.

The next assay deals with C57BL/6J mice. As to the kind of experiment: food ingestion calories of mice fed test diets for 56 days. Type of assay: in vivo. The conditions noted are these: 0.459% (w/w) in high-fat diet, mouse, compared to normal diet, high-fat diet alone or high-fat diet added with DCT, result in words, listed as glycoside DCT. The procedure: Glycoside DCT was added at a proportion of 0.459% (w/w) to AIN-93 composition diet containing 30% lard (to be abbreviated as glycoside DCT diet or glycoside diet), and fed to mouse. […] As a control, AIN-93 composition diet containing 7% lard (to be abbreviated as normal diet), AIN-93 composition diet containing 30% lard (to be abbreviated as high-fat diet), and high-fat diet containing 0.3% (w/w) dihydrocapsiate (DCT) (to be abbreviated as DCT diet) were fed to the mouse.
The details of the test method are shown below. 7-week-old male C57BL/6J mice (n=46) (Charles River Laboratories) were acclimated for 2 weeks, divided into 4 groups such that they have the same average body weight, and each group was allowed to freely ingest a food having the composition shown in Table 2 for 56 days. The body weight and the food ingestion amount were measured every 3-4 days.

Assay [2] relates to human colorectal cancer-derived cell line NCI-H716. In words: GLP-1 secretion, GLP-1 concentration in supernatant by ELISA. Type of assay: cell-based. To be noted: result in words (FIG. 2). On the technique in general: An ELISA detects its analyte on a solid surface through an enzyme-linked reagent.

Entries after “also recorded” stand apart in the source; their conditions may differ.

In the case of `COc1ccc(COC(=O)CCCCCCC(C)C)cc1OC1OC(CO)C(O)C(O)C1O` [compound 34, O-[3-(β-D-glucopyranosyloxy)-4-methoxybenzyl]-8-methylnonanoic acid ester], in assay [1], the “GLP-1 concentration in the supernatant compared to the DMSO treatment (control) group” value is “increased”; the fold induction (in general, the signal under treatment as a multiple of the control signal) at 100 µM is 1.29; the fold induction at 300 µM came to 1.94.
`COc1cc(COC(=O)CCCCCCC(C)C)ccc1OC1OC(CO)C(O)C(O)C1O` [compound 4, O-[4-(β-D-glucopyranosyloxy)-3-methoxybenzyl]-8-methylnonanoic acid ester]: in assay [1], the “GLP-1 concentration in the supernatant compared to the DMSO treatment (control) group” value was “increased in a compound concentration-dependent manner” and the fold induction at 100 µM was determined as 2.3. For the same molecule, the “total ingested calories during the test period” value in the assay on C57BL/6J mice is “suppress food ingestion calories; also recorded: significant decrease”. In assay [2], the “GLP-1 concentration compared to the group treated with equimolar concentration of glucose or cellobiose” value is “markedly high”.
`COc1cccc(COC(=O)CCCCCCC(C)C)c1OC1OC(COC(C)=O)C(OC2OC(COC(C)=O)C(OC(C)=O)C(OC(C)=O)C2OC(C)=O)C(OC(C)=O)C1OC(C)=O` (centres unmarked) [compound 24-2]: in assay [1], the “GLP-1 concentration in the supernatant compared to the DMSO treatment (control) group” value is “increased”, the fold induction at 100 µM came to 0.87 and the fold induction at 300 µM came to 1.15.
For `CCCCCCCCCC(=O)OCc1ccc(OC2OC(CO)C(O)C(O)C2O)c(OC)c1` [compound 16, O-[4-(β-D-glucopyranosyloxy)-3-methoxybenzyl]-decanoic acid ester], in assay [1], the “GLP-1 concentration in the supernatant compared to the DMSO treatment (control) group” value was “increased”, the fold induction at 100 µM stood at 1.23 and the fold induction at 300 µM stood at 3.25.
For `COc1cc(CCC(=O)OCCCCCCCC(C)C)ccc1OC1OC(CO)C(OC2OC(CO)C(O)C(O)C2O)C(O)C1O` [compound 32, O-8-methylnonyl-3-[4-(β-D-glucopyranosyl-(1→4)-β-D-glucopyranosyloxy)-3-methoxyphenyl]propionic acid ester], in assay [1], the “GLP-1 concentration in the supernatant compared to the DMSO treatment (control) group” value is “increased”, the fold induction at 100 µM came out at 1.24 and the fold induction at 300 µM was found to be 3.46.
For the molecule `COc1cc(CCOC(=O)CCCCCCC(C)C)ccc1OC1OC(CO)C(OC2OC(CO)C(O)C(O)C2O)C(O)C1O` [compound 23, O-[4-(β-D-glucopyranosyl-(1→4)-β-D-glucopyranosyloxy)-3-methoxyphenethyl]-8-methylnonanoic acid ester], in assay [1], the “GLP-1 concentration in the supernatant compared to the DMSO treatment (control) group” value is on record as “increased”, the fold induction at 100 µM came to 1.37 and the fold induction at 300 µM amounted to 10.3.
As to `COc1cccc(COC(=O)CCCCCCC(C)C)c1OC1OC(CO)C(OC2OC(CO)C(O)C(O)C2O)C(O)C1O` [compound 24, O-[2-(β-D-glucopyranosyl-(1→4)-β-D-glucopyranosyloxy)-3-methoxybenzyl]-8-methylnonanoic acid ester], in assay [1], the “GLP-1 concentration in the supernatant compared to the DMSO treatment (control) group” value is given as “increased”, the fold induction at 100 µM was 1.33 and the fold induction at 300 µM stood at 9.5.
Consider `COc1cc(CNC(=O)CCCCCCC(C)C)ccc1O[C@@H]1O[C@H](CO)[C@@H](O)[C@H](O)[C@H]1O` [compound 47, N-[4-(β-D-glucopyranosyloxy)-3-methoxybenzyl]-8-methylnonanamide, reference compound], for which, in assay [1], the “GLP-1 concentration in the supernatant compared to the DMSO treatment (control) group” value is on record as “did not show GLP-1 secretion promoting activity”, the fold induction at 100 µM turned out to be 0.61 and the fold induction at 300 µM is 0.78.
With `COc1cc(COC(=O)CCCC/C=C/C(C)C)ccc1OC1OC(CO)C(OC2OC(CO)C(O)C(O)C2O)C(O)C1O` [compound 35, O-[4-(β-D-glucopyranosyl-(1→4)-β-D-glucopyranosyloxy)-3-methoxybenzyl]-8-methyl-6-nonenoic acid ester], in assay [1], the “GLP-1 concentration in the supernatant compared to the DMSO treatment (control) group” value is reported as “increased”, the fold induction at 100 µM stood at 1.14 and the fold induction at 300 µM amounted to 2.4.
On to `COc1cc(COC(=O)CCCCCCC(C)C)ccc1O` [DCT, dihydrocapsiate, reference compound], for which the “GLP-1 concentration in the supernatant compared to the DMSO treatment (control) group” value in assay [1] was “did not show a similar change”.
With `COc1cc(CCC(=O)OCCCCCCCC(C)C)ccc1OC1OC(CO)C(O)C(O)C1O` [compound 30, O-8-methylnonyl-3-[4-(β-D-glucopyranosyloxy)-3-methoxyphenyl]propionic acid ester], in assay [1], the “GLP-1 concentration in the supernatant compared to the DMSO treatment (control) group” value is “increased”, the fold induction at 100 µM was 0.93 and the fold induction at 300 µM was 2.6.
For `COc1cc(COC(=O)CCCCCC(C)C)ccc1OC1OC(CO)C(OC2OC(CO)C(O)C(O)C2O)C(O)C1O` [compound 36, O-[4-(β-D-glucopyranosyl-(1→4)-β-D-glucopyranosyloxy)-3-methoxybenzyl]-7-methyloctanoic acid ester], in that order: “increased”, 1.19 and 2.41.
For `COc1cc(COC(=O)CCCC/C=C/C(C)C)ccc1OC1OC(CO)C(O)C(O)C1O` [compound 20, O-[4-(β-D-glucopyranosyloxy)-3-methoxybenzyl]-8-methyl-6-nonenoic acid ester], in assay [1], the “GLP-1 concentration in the supernatant compared to the DMSO treatment (control) group” value is given as “increased”, the fold induction at 100 µM is 1.13 and the fold induction at 300 µM came out at 1.56.
With `COc1cc(CO)ccc1O[C@@H]1O[C@H](CO)[C@@H](O[C@@H]2O[C@H](CO)[C@@H](O)[C@H](O)[C@H]2O)[C@H](O)[C@H]1O` [compound 14, 4-(β-D-glucopyranosyl-(1→4)-β-D-glucopyranosyloxy)-3-methoxybenzyl alcohol], in assay [1], the “GLP-1 concentration in the supernatant compared to the DMSO treatment (control) group” value is given as “increased”, the fold induction at 100 µM came to 1.07 and the fold induction at 300 µM was determined as 1.12.
As to `COc1cc(CC(=O)OCCCCCCCC(C)C)ccc1OC1OC(CO)C(OC2OC(CO)C(O)C(O)C2O)C(O)C1O` [compound 22, O-8-methylnonyl-2-[4-(β-D-glucopyranosyl-(1→4)-β-D-glucopyranosyloxy)-3-methoxyphenyl]acetic acid ester], in assay [1], the “GLP-1 concentration in the supernatant compared to the DMSO treatment (control) group” value is recorded as “increased”, the fold induction at 100 µM amounted to 1.87 and the fold induction at 300 µM was 1.66.
On to `COc1cc(COC(=O)CCCCCCC(C)C)ccc1OC1OC(CO)C(OC2OC(CO)C(O)C(O)C2O)C(O)C1O` [compound 12, O-[4-(β-D-glucopyranosyl-(1→4)-β-D-glucopyranosyloxy)-3-methoxybenzyl]-8-methylnonanoic acid ester], for which, in assay [1], the “GLP-1 concentration in the supernatant compared to the DMSO treatment (control) group” value is recorded as “increased in a compound concentration-dependent manner” and the fold induction at 100 µM was found to be 5.02. Also, the “GLP-1 concentration compared to the group treated with equimolar concentration of glucose or cellobiose” value in assay [2] is on record as “markedly high”.
`COc1cc(CNC(=O)CCCCCCC(C)C)ccc1O[C@@H]1O[C@H](CO)[C@@H](O[C@@H]2O[C@H](CO)[C@@H](O)[C@H](O)[C@H]2O)[C@H](O)[C@H]1O` [compound 27, N-[4-(β-D-glucopyranosyl-(1→4)-β-D-glucopyranosyloxy)-3-methoxybenzyl]-8-methylnonanamide, reference compound]: in assay [1], the “GLP-1 concentration in the supernatant compared to the DMSO treatment (control) group” value is reported as “did not show GLP-1 secretion promoting activity”, the fold induction at 100 µM came to 0.66 and the fold induction at 300 µM was found to be 0.71.
As to `COc1cc(COC(=O)CCCCCC(C)C)ccc1OC1OC(CO)C(O)C(O)C1O` [compound 18, O-[4-(β-D-glucopyranosyloxy)-3-methoxybenzyl]-7-methyloctanoic acid ester], in assay [1], the “GLP-1 concentration in the supernatant compared to the DMSO treatment (control) group” value was “increased”, the fold induction at 100 µM turned out to be 1.33 and the fold induction at 300 µM amounted to 1.85.

Source of the values: US9175028B2, “Glycoside compound” (AJINOMOTO CO., INC., priority 2010, dated 2015).
